Data: US7524844B2, “Dipeptidyl peptidase IV inhibitors, process for their preparation and compositions containing them” (Glenmark Pharmaceuticals S.A., priority 2004, dated 2009)

Molecular target: T1, human recombinant Dipeptidyl peptidase IV enzyme (DPP-IV) (Homo sapiens, UniProt P27487)
T1 construct: purchased R&D Systems Inc. of Minneapolis, Minn
Test: in-vitro DPP-IV assay (cleavage of AMC from Gly-Pro-AMC)
Assay type: biochemical
Settings: human recombinant DPP-IV, Gly-Pro-AMC substrate, 30° C., 30 minutes; read-out: DPP-IV inhibition using human recombinant DPP-IV enzyme, IC50
Experimental: DPP-IV activity was determined by the cleavage rate of 7-amino-4-methyl coumarin (AMC) from the synthetic substrate Glycyl-Prolyl-AMC. In brief, the assay was conducted by adding 10 ng of human recombinant Dipeptidyl peptidase IV enzyme (DPP-IV, available commercially from R&D Systems Inc. of Minneapolis, Minn.) in 50 μl of the assay buffer (25 mM Tris, pH 7.4, 140 mM NaCl, 10 mM KCl, 1% BSA) to 96 well black flat bottom microtiter plates. The reaction was initiated by adding 50 μl of 100 μM substrate Gly-Pro-AMC. The incubation was carried out in the kinetic mode at 30° C. for 30 minutes. Fluorescence was measured using Fluorostar with an excitation filter of 380 nm and emission filter of 460 nm. Test compounds and solvent controls were added as 1 μl additions. A standard curve of free amino methyl coumarin (AMC) was generated using 0-100 μM AMC in the assay buffer. The curve generated, which was linear was used for the interpolation of catalytic activity.
Test compounds dissolved in DMSO at 5-6 concentrations were tested in duplicate along with the solvent control and blank samples. Percent inhibition was calculated at each concentration with respect to the solvent control sample (no test compound added). […]

T1 sequence (P27487 whole entry): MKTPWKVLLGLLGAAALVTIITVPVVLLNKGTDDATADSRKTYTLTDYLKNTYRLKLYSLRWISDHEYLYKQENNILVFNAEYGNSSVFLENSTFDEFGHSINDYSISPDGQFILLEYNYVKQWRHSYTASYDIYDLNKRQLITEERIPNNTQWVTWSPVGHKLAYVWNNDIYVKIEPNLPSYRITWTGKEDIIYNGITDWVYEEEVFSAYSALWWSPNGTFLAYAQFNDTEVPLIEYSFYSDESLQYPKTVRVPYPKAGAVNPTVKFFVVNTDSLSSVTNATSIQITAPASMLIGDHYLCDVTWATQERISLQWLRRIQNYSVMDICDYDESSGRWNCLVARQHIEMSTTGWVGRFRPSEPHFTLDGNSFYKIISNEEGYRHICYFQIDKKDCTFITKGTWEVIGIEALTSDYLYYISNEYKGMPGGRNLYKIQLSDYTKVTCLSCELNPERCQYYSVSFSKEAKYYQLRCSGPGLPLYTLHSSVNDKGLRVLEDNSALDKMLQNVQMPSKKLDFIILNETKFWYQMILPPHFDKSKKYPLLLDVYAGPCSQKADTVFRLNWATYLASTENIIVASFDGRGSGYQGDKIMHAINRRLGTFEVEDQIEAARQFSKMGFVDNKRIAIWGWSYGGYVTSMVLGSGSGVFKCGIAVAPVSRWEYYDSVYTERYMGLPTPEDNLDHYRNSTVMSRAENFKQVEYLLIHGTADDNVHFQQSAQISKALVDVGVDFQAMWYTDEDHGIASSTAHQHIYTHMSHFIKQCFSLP

IC50: 9.25 nM
SMILES: N#C[C@@H]1CCCN1C(=O)CN[C@@H]1CC[C@H](Cn2nc3ccccc3n2)C1 [Example-71, (2S)-1-{2-[(3S,1R)-3-(2H-benzo[d][1,2,3]triazol-2-ylmethyl)cyclopentylamino]-acetyl}pyrrolidine-2-carbonitrile]
